Assay: xn = mol fraction of the nth substance listed
Conditions: for electrical conductivity: 101 kPa

CC[n+]1ccn(C)c1.O=S(=O)([N-]S(=O)(=O)C(F)(F)F)C(F)(F)F + COC(=O)OC
viscosity [mPa·s], 101.3 kPa
Conditions | 288.15 K | 293.15 K | 298.15 K | 303.15 K | 308.15 K | 313.15 K
x1 = 0.00265 | 0.69 | 0.644 | 0.604 | 0.567 | 0.534 | 0.504
x1 = 0.005572 | 0.717 | 0.67 | 0.627 | 0.588 | 0.554 | 0.523
x1 = 0.006266 | 0.73 | 0.681 | 0.637 | 0.599 | 0.563 | 0.532
x1 = 0.006515 | 0.73 | 0.682 | 0.637 | 0.598 | 0.563 | 0.531
x1 = 0.008405 | 0.748 | 0.698 | 0.653 | 0.612 | 0.576 | 0.543
x1 = 0.01068 | 0.778 | 0.724 | 0.676 | 0.634 | 0.596 | 0.562
x1 = 0.01231 | 0.795 | 0.74 | 0.691 | 0.648 | 0.609 | 0.573
x1 = 0.01323 | 0.813 | 0.757 | 0.707 | 0.662 | 0.623 | 0.587
x1 = 0.01407 | 0.821 | 0.763 | 0.713 | 0.668 | 0.628 | 0.591
x1 = 0.01462 | 0.823 | 0.766 | 0.716 | 0.671 | 0.63 | 0.594
x1 = 0.01829 | 0.861 | 0.801 | 0.747 | 0.699 | 0.656 | 0.618
x1 = 0.01968 | 0.873 | 0.812 | 0.757 | 0.708 | 0.664 | 0.626
x1 = 0.02012 | 0.879 | 0.817 | 0.762 | 0.713 | 0.669 | 0.63
x1 = 0.02014 | 0.878 | 0.816 | 0.76 | 0.712 | 0.667 | 0.628
x1 = 0.02562 | 0.928 | 0.861 | 0.804 | 0.751 | 0.704 | 0.662
x1 = 0.03021 | 0.956 | 0.886 | 0.824 | 0.769 | 0.72 | 0.676
x1 = 0.03102 | 0.964 | 0.893 | 0.83 | 0.774 | 0.725 | 0.68
x1 = 0.03106 | 0.961 | 0.89 | 0.828 | 0.773 | 0.723 | 0.68
x1 = 0.03348 | 0.982 | 0.91 | 0.846 | 0.79 | 0.739 | 0.694
x1 = 0.03766 | 1.018 | 0.943 | 0.877 | 0.818 | 0.765 | 0.718
x1 = 0.04567 | 1.086 | 1.005 | 0.934 | 0.871 | 0.814 | 0.764
x1 = 0.04728 | 1.111 | 1.029 | 0.945 | 0.881 | 0.824 | 0.773
x1 = 0.05348 | 1.15 | 1.064 | 0.988 | 0.92 | 0.86 | 0.807
x1 = 0.05932 | 1.205 | 1.113 | 1.033 | 0.962 | 0.898 | 0.841

CC(=O)[O-].CCC[N+]1(C)CCCC1 + CC#N
298 K
Conditions | electrical conductivity [S/m]
x2 = 0.75 | 3.18
x2 = 0.775 | 3.51
x2 = 0.799 | 3.72
x2 = 0.825 | 3.86
x2 = 0.849 | 3.9
x2 = 0.875 | 3.92
x2 = 0.9 | 3.85
x2 = 0.911 | 3.75
x2 = 0.921 | 3.63
x2 = 0.94 | 3.35

CCCCCCCCCC(=O)[O-].CCCCCCCCCCCCCC[P+](CCCCCC)(CCCCCC)CCCCCC + CCCC(=O)O + O
298 K, 100 kPa
Conditions | viscosity [mPa·s]
x2 = 0, x3 = 0.8754 | 96
x2 = 0.02766, x3 = 0.8266 | 95
x2 = 0.04982, x3 = 0.8036 | 97
x2 = 0.3259, x3 = 0.4715 | 100
x2 = 0.4065, x3 = 0.3936 | 96
x2 = 0.4564, x3 = 0.3488 | 91
x2 = 0.4978, x3 = 0.3385 | 78

Source: the CheMixHub ionic liquid set
